Measurements reported in ChEMBL document CHEMBL4837230, “Thiophene-2-carboxamide derivatives of anthraquinone: A new potent antitumor chemotype” (Eur J Med Chem, 2021).
Activity calls are given as the source filed them. The rule behind the calls is not given here.

Experiments:
[1] = Cytotoxicity in human DND41 cells assessed as reduction in cell viability incubated for 72 hrs by MTT assay; type: functional, cell-based; settings: DND41, 72 h
NCI-H460 = assay: Cytotoxicity in human NCI-H460 cells assessed as reduction in cell viability incubated for 72 hrs by MTT assay; type: functional, cell-based; settings: NCI-H460, 72 h
K562 [2] = assay: Induction of cell cycle arrest in human K562 cells assessed as increase in accumulation at sub-G1 phase at 5 uM after 24 hrs by propidium iodide staining based flow cytometric analysis (reference value: 8.4%); type: functional
K562 [3] = assay: Induction of cell cycle arrest in human K562 cells assessed as increase in accumulation at sub-G1 phase at 2.5 uM after 48 hrs by propidium iodide staining based flow cytometric analysis (reference value: 8.4%); type: functional
K562 [4] = assay: Induction of cell cycle arrest in human K562 cells assessed as increase in accumulation at sub-G1 phase at 2.5 uM after 24 hrs by propidium iodide staining based flow cytometric analysis (reference value: 8.4%); type: functional
K562 [5] = assay: Induction of cell cycle arrest in human K562 cells assessed as increase in accumulation at sub-G1 phase at 0.5 uM after 24 hrs by propidium iodide staining based flow cytometric analysis (reference value: 8.4%); type: functional
K562 [6] = assay: Cytotoxicity in human K562 cells assessed as reduction in cell viability incubated for 72 hrs by MTT assay; type: functional, cell-based; settings: K562, 72 h
[7] = Resistance index, ratio of IC50 for cytotoxicity against human K562/4 cells to IC50 for cytotoxicity against human K562 cells; type: functional
K562 [8] = assay: Cytotoxicity in human K562 cells assessed as reduction in cell viability at 0.5 uM incubated for 72 hrs by propidium iodide staining based flow cytometric analysis; type: functional
K562 [9] = assay: Cytotoxicity in human K562 cells assessed as reduction in cell viability at 1 uM incubated for 72 hrs by propidium iodide staining based flow cytometric analysis; type: functional
K562 [10] = assay: Cytotoxicity in human K562 cells assessed as reduction in cell viability at 2.5 uM incubated for 72 hrs by propidium iodide staining based flow cytometric analysis; type: functional
K562 [11] = assay: Cytotoxicity in human K562 cells assessed as reduction in cell viability at 1 uM incubated with compound for 120 mins followed by cell washing and measured after 72 hrs by propidium iodide staining based flow cytometric analysis; type: functional; settings: 2 h
K562 [12] = assay: Cytotoxicity in human K562 cells assessed as reduction in cell viability at 2.5 uM incubated with compound for 120 mins followed by cell washing and measured after 72 hrs by propidium iodide staining based flow cytometric analysis; type: functional; settings: 2 h
DNA = assay: Binding affinity to pBR322 DNA (unknown origin) at 20 uM after 30 mins by electrophoretic mobility shift assay; type: nucleic-acid assay
K562 [13] = assay: Induction of cell cycle arrest in human K562 cells assessed as increase in accumulation at sub-G1 phase at 2.5 uM by flow cytometric analysis (reference value: 16.1%); type: functional
K562 [14] = assay: Induction of cell cycle arrest in human K562 cells assessed as increase in accumulation at G0/G1 phase at 2.5 uM by flow cytometric analysis (reference value: 60.9%); type: functional
K562 [15] = assay: Induction of cell cycle arrest in human K562 cells assessed as increase in accumulation at G2/M phase at 2.5 uM by flow cytometric analysis (reference value: 11.8%); type: functional
K562 [16] = assay: Induction of cell cycle arrest in human K562 cells assessed as increase in accumulation at sub-G1 phase at 2.5 uM after 2 hrs by flow cytometric analysis (reference value: 15.2%); type: functional
K562 [17] = assay: Induction of cell cycle arrest in human K562 cells assessed as increase in accumulation at G0/G1 phase at 2.5 uM after 2 hrs by flow cytometric analysis (reference value: 46.5%); type: functional
K562 [18] = assay: Induction of cell cycle arrest in human K562 cells assessed as increase in accumulation at sub-G1 phase at 2.5 uM after 4 hrs by flow cytometric analysis (reference value: 14%); type: functional
K562 [19] = assay: Induction of cell cycle arrest in human K562 cells assessed as increase in accumulation at G0/G1 phase at 2.5 uM after 4 hrs by flow cytometric analysis (reference value: 19.2%); type: functional
K562 [20] = assay: Induction of cell cycle arrest in human K562 cells assessed as increase in accumulation at sub-G1 phase at 2.5 uM after 6 hrs by flow cytometric analysis (reference value: 22.1%); type: functional
K562 [21] = assay: Induction of cell cycle arrest in human K562 cells assessed as increase in accumulation at G0/G1 phase at 2.5 uM after 6 hrs by flow cytometric analysis (reference value: 14.1%); type: functional
K562 [22] = assay: Induction of cell cycle arrest in human K562 cells assessed as increase in accumulation at G2/M phase at 2.5 uM after 6 hrs by flow cytometric analysis (reference value: 26.8%); type: functional
K562 [23] = assay: Induction of mitochondrial membrane potential loss in human K562 cells at 2.5 uM after 6 hrs by Mitotracker Red dye based flow cytometric analysis(reference value: 6.4 %); type: functional
K562 [24] = assay: Induction of mitochondrial membrane potential loss in human K562 cells at 7.5 uM after 6 hrs by Mitotracker Red dye based flow cytometric analysis; type: functional, cell-based
[25] = Drug localization in cytoplasm of mouse NIH3T3 cells at 1 uM incubated for 5 to 60 mins by laser confocal microscopy; type: ADME, cell-based; settings: nih3t3, 1 µM, time 5-60 min
[26] = Drug localization in mitochondria of mouse NIH3T3 cells at 1 uM measured after 60 mins by MitoTracker red based confocal microscopic method; type: ADME; settings: nih3t3, 1 h
K562 [27] = assay: Induction of apoptosis in human K562 cells assessed as viable cells after 3 hrs by Annexin V-[…]/PI double staining based flow cytometric analysis (reference value: 91%); type: functional
K562 [28] = assay: Induction of apoptosis in human K562 cells assessed as early apoptotic cells after 3 hrs by Annexin V-APC/PI double staining based flow cytometric analysis (reference value: 0.1%); type: functional
K562 [29] = assay: Induction of apoptosis in human K562 cells assessed as early apoptotic cells after 24 hrs by Annexin V-APC/PI double staining based flow cytometric analysis (reference value: 0.1%); type: functional
K562 [30] = assay: Induction of apoptosis in human K562 cells assessed as late apoptotic cells after 24 hrs by Annexin V-APC/PI double staining based flow cytometric analysis (reference value: 2.6%); type: functional
K562 [31] = assay: Induction of apoptosis in human K562 cells assessed as necrotic cells after 24 hrs by Annexin V-APC/PI double staining based flow cytometric analysis (reference value: 6.3%); type: functional
K562 [32] = assay: Induction of apoptosis in human K562 cells assessed as activation of casapse-3 cleavage at 2.5 uM measured after 6 hrs by Western blot analysis; type: functional, cell-based
K562 [33] = assay: Induction of apoptosis in human K562 cells assessed as activation of PARP cleavage at 2.5 uM measured after 6 hrs by Western blot analysis; type: functional, cell-based
[34] = Drug localization in nuclei of mouse NIH3T3 cells at 1 uM incubated for 5 to 60 mins by Hoechst 33258 staining based laser confocal microscopy; type: ADME, cell-based; settings: nih3t3, 1 µM, time 5-60 min
[35] = Drug localization in mitochondria of mouse NIH3T3 cells at 1 uM measured after 5 mins by MitoTracker red based confocal microscopic method; type: ADME; settings: nih3t3, 5 min

N[C@H]1CCN(C(=O)c2cc3c(O)c4c(c(O)c3s2)C(=O)c2ccccc2C4=O)C1
IC50 [1]: 400 nM | IC50 (NCI-H460): 400 nM | Activity (K562 [2]): 78.4% | Activity (K562 [3]): 84.5% | Activity (K562 [4]): 76.7% | Activity (K562 [5]): 18.7% | IC50 (K562 [6]): 300 nM | Ratio [7]: 1.3 | Activity (K562 [8]): 77.6% | Activity (K562 [9]): 79.9% | Activity (K562 [10]): 94.8% | Activity (K562 [11]): 56.4% | Activity (K562 [12]): 76.5% | Activity (DNA): inactive | Activity (K562 [13]): 14.9% | Activity (K562 [14]): 59.1% | Activity (K562 [15]): 14% | Activity (K562 [16]): 15.9% | Activity (K562 [17]): 40.4% | Activity (K562 [18]): 14.5% | Activity (K562 [19]): 28.1% | Activity (K562 [20]): 24.6% | Activity (K562 [21]): 31.7% | Activity (K562 [22]): 13.9% | Activity (K562 [23]): 33.3% | Activity (K562 [24]): inactive | Drug uptake [25]: Active | Drug uptake [26]: Active | Activity (K562 [27]): 47.9% | Activity (K562 [28]): 0.6% | Activity (K562 [29]): 0.1% | Activity (K562 [30]): 49.3% | Activity (K562 [31]): 48.8% | Activity (K562 [32]): Active | Activity (K562 [33]): Active | Drug uptake [34]: Not Active | Drug uptake [35]: Not Active
